Active and inactive are the calls of the source. The rule behind the calls is not given here.
Molecular target: Signal transducer and activator of transcription 3 (Homo sapiens) (UniProt P40763)
Assay: STAT3 activation reporter response, dose response, cell-based (AID 1398)

Compound | IC50
COCCCNC(=O)c1cc2c(-c3ccc(Cl)cc3)nn(C)c2s1 | > 55.7 µM (inactive)
O=C(O)C(Cc1c[nH]c2ccccc12)N1Cc2ccccc2C1=O (stereo not given) | inactive
COCCNC(=O)C(=O)NNC(=O)c1ccccc1OC | inactive
COc1ccc(Cl)cc1NC(=O)c1oc(C)nc1C | > 55.7 µM (inactive)
O=C(Nc1ccccc1O)c1csc2c1CCCC2 | 2.44 µM
CC1=C(C)C(=O)C(N2CCOCC2)=CC1=O | inactive
Cc1c(C#N)c2ccccc2n1CC(=O)O | 5.09 µM
CCOc1ccccc1-c1n[nH]c(=S)o1 | 0.521 µM
CCCN(CCC)C(=O)Cn1c2ccccc2c2nc(=O)cc(C)n21 | 0.174 µM
CCOc1ccccc1CN1CCN(Cc2cc3ccccc3[nH]2)CC1CCO (stereo not given) | > 55.7 µM (inactive)
CCc1cc2c(NCCC(=O)O)nc(C)nc2s1 | > 55.7 µM (inactive)
CCOC(=O)C1(CC2CCCCO2)CCN(Cc2cc3ccccc3[nH]2)CC1 (stereo not given) | > 55.7 µM (inactive)
CN1C(=O)/C(=C\c2cc(Br)cs2)c2ccccc21 | 0.635 µM
O=C(Nc1nnc(-c2ccccc2Cl)o1)c1nc2ccccc2s1 | > 55.7 µM (inactive)
COCc1cc(=O)n2c(-c3ccccc3OC)n[nH]c2n1 | 0.821 µM
CN(C)C(=O)COC(=O)/C=C/c1ccccc1[N+](=O)[O-] | 7.75 µM
COc1ccc(C2c3[nH]c4ccccc4c3CCN2C(=O)c2ccc(=O)n(C)n2)c(F)c1 (stereo not given) | 2.44 µM
COc1ccccc1C(=O)NNC(=O)c1ccc(NC(=O)C(C)C)cc1 | 1.3 µM
O=C(CCc1nnc(Cc2ccc3c(c2)OCO3)o1)NCc1nc2ccccc2s1 | 2.85 µM
O=C(CN1CCNCC1)Nc1ccc(Oc2ccccc2)cc1 | > 55.7 µM (inactive)
N#Cc1cn(CC(=O)O)c2ccccc12 | 9.78 µM
NNc1ncnc2sc3c(c12)CCC3 | > 55.7 µM (inactive)
Cc1nc2c(n1C1CCCCC1)C(=O)c1ccccc1C2=O | 5.8 µM
COC(=O)c1sccc1NC(=O)c1ccc(Br)s1 | > 18.6 µM (inactive)
CN1CCN(C(=O)CNc2ccc(C(F)(F)F)cc2[N+](=O)[O-])CC1 | 3.56 µM
O=C(c1cccnc1)N1CCc2ccccc21 | 8.13 µM
CCN1CCN(C(=O)c2cc3c(-c4ccc(Cl)cc4)nn(C)c3s2)CC1 | > 55.7 µM (inactive)

Compound | IC50
CC(OC(=O)c1cccnc1SCc1cc(=O)n2ccccc2n1)c1ccccn1 (stereo not given) | > 6.19 µM (inactive)
O=C(COc1ccccc1Cl)Nc1cc(Cl)ccc1O | 0.571 µM
COc1ccccc1-c1nnc(SCC(=O)NC2CCCCC2)o1 | 1.87 µM
O=C(c1cc[n+]([O-])cc1)N1CCc2c([nH]c3ccccc23)C1c1ccccc1Cl (stereo not given) | 8.29 µM
Cc1c(C(=O)NCc2cccnc2)oc2ccc(S(=O)(=O)N3CC(C)CC(C)C3)cc12 (stereo not given) | > 55.7 µM (inactive)
COc1cc(NC(=O)c2cc(-c3ccco3)on2)c(OC)cc1Cl | 1.71 µM
CN(Cc1ccccc1)Cc1c[nH]c2ccccc12 | > 55.7 µM (inactive)
COc1ccc(CN2CCN(S(=O)(=O)c3ccc(C)cc3)CC2)cc1Br | 6.13 µM
CCOC(=O)CC1C(=O)NCCN1C(=O)c1cc2c(=O)n3cccc(C)c3nc2s1 (stereo not given) | > 55.7 µM (inactive)
Cn1nc(-c2ccc(Cl)cc2)c2cc(C(=O)NCCN3CCOCC3)sc21 | 6.88 µM
COc1ccc(NC(=O)N2CCn3c2nc2ccccc23)cc1 | > 55.7 µM (inactive)
O=C(Cc1c[nH]c2ccccc12)Nc1nc2ccccc2[nH]1 | 4.98 µM
Nc1ccccc1Sc1nc2ccccc2[nH]1 | inactive
Cc1ccccc1C1c2[nH]c3ccccc3c2CCN1C(=O)c1ccc(=O)n(C)n1 (stereo not given) | 4.19 µM
CCC(CC)NC(=O)Cc1ccccc1[N+](=O)[O-] | > 55.7 µM (inactive)
COC(=O)c1n[nH]c2ccccc12 | 3.33 µM
COCCCNc1nc2c(-c3cccc(C(F)(F)F)c3)nnn2c2ccccc12 | > 55.7 µM (inactive)
CCn1c(C(=O)Nc2ccsc2C(=O)OC)cc2sc(Cl)cc21 | > 55.7 µM (inactive)
O=C(CCN1CCOCC1)N1CCc2c([nH]c3ccccc23)C1c1cccc(Cl)c1 (stereo not given) | 7.41 µM
COc1ccc(Cl)cc1NC(=O)Nc1ccc(Br)cn1 | > 55.7 µM (inactive)
COc1ccc(-c2nnc(Nc3nc4c(OC)cccc4s3)o2)cc1 | > 55.7 µM (inactive)
CN1C(=O)c2ccccc2C(C(=O)NCCCN2CCCC2=O)C1c1c[nH]c2ccccc12 (stereo not given) | > 55.7 µM (inactive)
CN(C)C(CN1C(=O)C2CC=CCC2C1=O)c1cn(C)c2ccccc12 (stereo not given) | > 55.7 µM (inactive)
COc1ccc(-c2nc3scc(-c4ccccc4)n3n2)cc1 | 5.79 µM
c1ccc2c(CNC3CCCCCC3)c[nH]c2c1 | > 55.7 µM (inactive)
CC(=O)n1cc(Nc2ccc([N+](=O)[O-])cc2)c2ccccc21 | > 55.7 µM (inactive)
CCOc1ccccc1C1CC(c2cccs2)=NN1S(C)(=O)=O (stereo not given) | > 55.7 µM (inactive)

Compound | IC50
CC(=O)N1N=C(c2ccccc2O)OC1(C)CC(=O)Nc1ccccc1 (stereo not given) | > 55.7 µM (inactive)
O=c1c2ccccc2ncn1Cc1ccco1 | 5.66 µM
CCOc1cc(-c2ccc(N)c(OCC)c2)ccc1N | > 55.7 µM (inactive)
Cc1cc(-c2ccc(Cl)cc2)c(C#N)c(N)n1 | 5.9 µM
CCCc1nnc(N2C(=O)c3cccc4cccc(c34)C2=O)s1 | > 55.7 µM (inactive)
CCCNC(=O)Cn1c2ccccc2c2nc(=O)cc(C)n21 | 3.33 µM
CN1CCN(CCCNC(=O)c2cc3c(-c4ccc(Cl)cc4)nn(C)c3s2)CC1 | 3.78 µM
CCC(=O)NCCSc1c[nH]c2ccccc12 | inactive
Cn1nc(-c2ccc(Cl)cc2)c2cc(C(=O)NCCCN3CCOCC3)sc21 | inactive
COc1ccc(Cl)cc1-c1nc(-c2ccc(Br)o2)no1 | 8.51 µM
CCN(CC)S(=O)(=O)c1ccc(-c2nnc3sc4cccc(C)c4n23)cc1 | > 55.7 µM (inactive)
O=C(O)C1CC=CCC1C(=O)Nc1ccc(S(=O)(=O)N2CCCc3ccccc32)cc1 (stereo not given) | 5.67 µM
Cc1nn(-c2ccc(Cl)cc2)c(N)c1C(O)(CSc1nccn1C)C(F)(F)F (stereo not given) | > 55.7 µM (inactive)
COc1ccc(S(=O)(=O)Nc2nc3ccccc3s2)cc1OC | inactive
COCc1cc(C)nc2sc(C(=O)NN)c(-n3cccc3)c12 | inactive
O=C(Cc1cccs1)Nc1ccccn1 | 8.06 µM
COCCNC(=O)c1cc2c(-c3ccc(Cl)cc3)nn(C)c2s1 | > 55.7 µM (inactive)
O=C(C1CCCN(S(=O)(=O)c2cccc3cccnc23)C1)N1CCc2ccccc21 (stereo not given) | > 55.7 µM (inactive)
O=C(Cc1c[nH]c2ccccc12)Nc1nnc(C2CC2)s1 | 2.98 µM
CC1Cc2ccccc2N1Cc1cc(=O)n2ccsc2n1 (stereo not given) | inactive
CC(=O)NCCC(=O)N1CCc2c([nH]c3ccccc23)C1c1cccc(Cl)c1 (stereo not given) | > 55.7 µM (inactive)
COc1ccc(Br)cc1C(=O)Nc1cccc(C)c1 | inactive
CC(C)CC(=O)NC(=S)Nc1nc(-c2ccccc2)cs1 | 0.468 µM
CC(=O)NCCC(=O)N1CCc2c([nH]c3ccccc23)C1c1cccc(C)c1 (stereo not given) | 2.5 µM
CCOC(=O)c1sc(NCc2ccco2)c(-c2nc3ccccc3s2)c1N | 9.76 µM
Nc1nnc(Cc2c[nH]c3ccccc23)s1 | > 55.7 µM (inactive)
CC1CCN(C(=O)Cn2c(=O)n(CCc3ccccc3)c(=O)c3ccccc32)CC1 | > 55.7 µM (inactive)

Compound | IC50
COCCSc1ccccc1C(=O)NCCc1ccccc1 | > 55.7 µM (inactive)
COc1ccc(C)cc1NC(=O)c1[nH]c(C)c(C(C)=O)c1C | inactive
Cc1noc(/C=C/N(C)C)c1S(=O)(=O)N1CCc2ccccc21 | inactive
Cn1nc(-c2ccc(Cl)cc2)c2cc(C(=O)NCC3CCCO3)sc21 (stereo not given) | > 6.19 µM (inactive)
CC(C)CC1c2[nH]c3ccccc3c2CCN1C(=O)CCC(=O)N(C)C (stereo not given) | > 6.19 µM (inactive)
CCOc1ccc(CN2CCN(Cc3cc4ccccc4[nH]3)CC2CCO)cc1 (stereo not given) | 0.644 µM
O=C(CCCSc1nc2ccccc2s1)NCc1ccco1 | inactive
CCC(C(=O)Nc1ccccc1OC)n1c(C(=O)OC)cc2ccsc21 (stereo not given) | 2.02 µM
O=C(Cc1cnc2ncnn2c1)N1CCc2c([nH]c3ccccc23)C1c1ccccc1F (stereo not given) | inactive
COc1cccc2sc(Nc3nnc(-c4ccc(F)cc4)o3)nc12 | > 0.688 µM (inactive)
COC(=O)NNC(=O)c1ccccc1OC | 6.03 µM
Cc1ccc(CC(=O)Nc2nc3c(s2)CCCC3)cc1 | > 55.7 µM (inactive)
NC(=O)CSc1c[nH]c2ccccc12 | inactive
CN1N=C(C(=O)N2CCc3c([nH]c4ccccc34)C2c2c(F)cccc2Cl)CCC1=O (stereo not given) | 4.82 µM
Cc1nc(/N=C(\N)Nc2ccccc2)nc2ccccc12 | 2.11 µM
CC1=NN(c2ccccc2)C(=O)/C1=C/c1c(O)[nH]c(=O)[nH]c1=O | > 55.7 µM (inactive)
COc1cccc(-c2nc(N3CCCCC3C)c3ccccc3n2)c1O (stereo not given) | > 55.7 µM (inactive)
Cc1cccc2c1NC(=O)/C2=C\C(=O)c1cccs1 | > 18.6 µM (inactive)
Cc1nnc(NC(=O)c2oc3c(ccc4ccccc43)c2C)s1 | > 0.619 µM (inactive)
COc1ccccc1C(=O)NNC(=S)Nc1ccccc1 | > 0.229 µM (inactive)
Cc1nc2ccccc2cc1O | 3.4 µM
COc1ccc(C2c3[nH]c4ccccc4c3CCN2C(=O)c2cc3ncccn3n2)c(F)c1 (stereo not given) | 5.23 µM
c1ccc2c(c1)CCCN2c1nc2ccccc2n2cnnc12 | 1.36 µM
Cc1cc(C)n(-c2nnc3n2N=C(c2c[nH]c4ccccc24)CS3)n1 | inactive

— PubChem BioAssay AID1398 (The Scripps Research Institute Molecular Screening Center, 2008)
